{"source": "PubChem BioAssay AID504416", "about": "(Johns Hopkins Ion Channel Center, 2011)", "biological_target": "Potassium voltage-gated channel subfamily KQT member 4 (Homo sapiens) (UniProt P56696)", "sequence (P56696 whole entry, looked up)": "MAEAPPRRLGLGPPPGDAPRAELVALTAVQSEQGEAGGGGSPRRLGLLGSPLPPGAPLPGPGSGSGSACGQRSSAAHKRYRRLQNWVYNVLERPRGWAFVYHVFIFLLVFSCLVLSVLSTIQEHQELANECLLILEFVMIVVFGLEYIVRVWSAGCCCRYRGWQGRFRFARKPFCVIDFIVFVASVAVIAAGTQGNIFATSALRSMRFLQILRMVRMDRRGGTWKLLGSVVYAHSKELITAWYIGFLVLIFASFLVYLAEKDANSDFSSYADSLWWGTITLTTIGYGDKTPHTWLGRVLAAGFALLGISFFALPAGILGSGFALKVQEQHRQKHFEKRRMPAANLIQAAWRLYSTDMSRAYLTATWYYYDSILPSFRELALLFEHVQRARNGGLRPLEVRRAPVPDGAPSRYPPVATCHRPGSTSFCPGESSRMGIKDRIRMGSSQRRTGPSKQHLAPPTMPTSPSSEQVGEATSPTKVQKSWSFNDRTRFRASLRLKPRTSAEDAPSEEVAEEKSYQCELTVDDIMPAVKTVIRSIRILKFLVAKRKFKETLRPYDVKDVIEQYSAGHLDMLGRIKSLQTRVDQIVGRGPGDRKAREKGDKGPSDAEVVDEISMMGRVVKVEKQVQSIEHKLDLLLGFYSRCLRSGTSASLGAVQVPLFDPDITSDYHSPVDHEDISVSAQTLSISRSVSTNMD", "test": "KCNQ4 channel modulation, potentiation or inhibition, dose response, selectivity assay for KCNQ2 activator project, thallium flux, KCNQ4-expressing cells (AID 504416)", "conditions": "FluxOR thallium flux fluorescence", "note": "Calls of active or inactive are those of the source.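 Rule for the calls: active = raises or lowers thallium flux through KCNQ4 potassium channels at some tested dose, with a fitted dose response curve; inactive = no effect at any dose or no curve.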"}
{"compound": "Cc1cc(C)c(NC(=O)C2CC3CCC2C3)c(C)c1", "note": "(configuration not stated)", "values": [{"measurement": "EC50", "value": 2400, "unit": "nM"}]}
{"compound": "Cc1cccc(C)c1NC(=O)C1CC2CCC1C2", "note": "(configuration not stated)", "values": [{"measurement": "potentiation", "setting": "at 30 µM (top of the series)", "value": "inactive"}]}
